The values below come from patent publication US20230295200A1 (REGENTS OF THE UNIVERSITY OF MICHIGAN, priority 2022, published 2023).

One test addresses T1, STAT5A (Homo sapiens, UniProt P42229).
T1 sequence (P42229 1-794): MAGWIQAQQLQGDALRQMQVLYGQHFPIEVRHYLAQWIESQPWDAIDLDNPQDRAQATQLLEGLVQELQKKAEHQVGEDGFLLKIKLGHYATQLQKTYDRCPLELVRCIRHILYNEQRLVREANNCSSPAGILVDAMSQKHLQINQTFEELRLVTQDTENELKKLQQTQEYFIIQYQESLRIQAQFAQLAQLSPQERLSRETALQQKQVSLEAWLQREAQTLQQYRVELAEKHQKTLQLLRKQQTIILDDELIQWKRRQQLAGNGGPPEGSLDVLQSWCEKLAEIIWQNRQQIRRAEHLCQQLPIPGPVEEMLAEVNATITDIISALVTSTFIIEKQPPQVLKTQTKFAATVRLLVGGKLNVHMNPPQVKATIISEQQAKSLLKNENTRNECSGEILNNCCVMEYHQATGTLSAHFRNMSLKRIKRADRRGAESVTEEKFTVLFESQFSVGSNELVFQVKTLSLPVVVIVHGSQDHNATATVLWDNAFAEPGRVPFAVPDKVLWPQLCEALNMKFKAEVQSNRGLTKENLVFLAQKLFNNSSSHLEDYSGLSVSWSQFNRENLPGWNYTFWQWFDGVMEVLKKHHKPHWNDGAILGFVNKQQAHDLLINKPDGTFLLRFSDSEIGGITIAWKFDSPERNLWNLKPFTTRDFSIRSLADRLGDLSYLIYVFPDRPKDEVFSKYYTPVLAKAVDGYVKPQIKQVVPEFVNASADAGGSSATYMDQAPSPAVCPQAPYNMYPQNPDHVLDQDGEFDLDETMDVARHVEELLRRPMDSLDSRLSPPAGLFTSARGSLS
The test can be described thus: Fluorescence polarization (FP) binding assay, STAT5A. The note with it: FP competition, 5 nM fluorescein-labeled tracer, 200 nM protein, PBS pH7.4. The essentials:
(§1)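 Polarization of a 5 nM fluorescein tracer bound by 200 nM STAT protein, measured after 1 h room-temperature equilibration in buffered PBS pH 7.4 with DTT, gave inhibition constants via nonlinear curve fitting.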
Background: Polarisation of emitted light reports the rotation of a fluorescent probe.

The target of the next test is T2, STAT6 protein (Homo sapiens, UniProt P42226).
T2 sequence (P42226 1-847): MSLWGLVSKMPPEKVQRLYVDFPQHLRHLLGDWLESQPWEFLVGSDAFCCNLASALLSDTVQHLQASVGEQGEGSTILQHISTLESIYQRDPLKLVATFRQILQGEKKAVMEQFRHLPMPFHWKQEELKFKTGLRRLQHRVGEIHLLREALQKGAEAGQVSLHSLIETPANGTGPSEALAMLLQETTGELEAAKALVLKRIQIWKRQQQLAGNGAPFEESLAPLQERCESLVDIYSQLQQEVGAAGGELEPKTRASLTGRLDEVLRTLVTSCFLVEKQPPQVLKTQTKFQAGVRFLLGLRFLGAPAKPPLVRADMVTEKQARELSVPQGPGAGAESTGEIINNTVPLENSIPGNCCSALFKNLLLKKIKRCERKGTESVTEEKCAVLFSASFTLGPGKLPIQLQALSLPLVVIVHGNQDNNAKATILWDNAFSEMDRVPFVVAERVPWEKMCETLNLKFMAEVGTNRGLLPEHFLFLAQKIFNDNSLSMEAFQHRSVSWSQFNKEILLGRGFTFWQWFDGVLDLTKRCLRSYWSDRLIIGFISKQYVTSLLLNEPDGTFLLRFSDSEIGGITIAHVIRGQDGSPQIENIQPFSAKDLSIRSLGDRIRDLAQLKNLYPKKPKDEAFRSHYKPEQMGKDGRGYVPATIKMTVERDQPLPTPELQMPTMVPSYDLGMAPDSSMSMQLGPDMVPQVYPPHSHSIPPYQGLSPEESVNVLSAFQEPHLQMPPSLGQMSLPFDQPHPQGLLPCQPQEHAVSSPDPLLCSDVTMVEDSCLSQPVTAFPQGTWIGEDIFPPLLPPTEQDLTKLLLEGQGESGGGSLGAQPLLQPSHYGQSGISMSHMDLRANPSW
Put plainly: Fluorescence polarization (FP) binding assay, STAT6. The note with it: FP competition, 5 nM fluorescein-labeled tracer, 200 nM protein, PBS pH7.4; read-out: Binding STAT6. In a few lines: as §1

As for `CC(=O)N1CCN(C(=O)[C@@H](NC(=O)c2cc3cc(C(F)(F)P(=O)(O)O)ccc3s2)C(C)(C)C)[C@H](C(=O)N2CCO[C@H](c3ccccc3)C2)C1` [Compound 170, ((2-(((S)-1-((S)-4-acetyl-2-((R)-2-phenylmorpholine-4-carbonyl)piperazin-1-yl)-3,3-dimethyl-1-oxobutan-2-yl)carbamoyl)benzo[b]thiophen-5-yl)difluoromethyl)phosphonic acid], the Ki at STAT5A lay in the range of 1 to 10 µM; on STAT6 protein, 0.1 to 1 µM.

Consider `CC(=O)N1CCN(C(=O)[C@@H](NC(=O)c2cc3cc(C(F)(F)P(=O)(O)O)ccc3s2)C(C)(C)C)[C@H](C(=O)N2CCO[C@@H](c3ccccc3)C2)C1` [Compound 171, ((2-(((S)-1-((S)-4-acetyl-2-((S)-2-phenylmorpholine-4-carbonyl)piperazin-1-yl)-3,3-dimethyl-1-oxobutan-2-yl)carbamoyl)benzo[b]thiophen-5-yl)difluoromethyl)phosphonic acid], for which the Ki at STAT5A is above 10 µM; at STAT6 protein, 1 to 10 µM.

In the case of `CC(=O)N1CCN(C(=O)[C@@H](NC(=O)c2cc3cc(C(F)(F)P(=O)(O)O)ccc3s2)C(C)(C)C)[C@H](C(=O)N2CCC[C@H](c3ccccc3)C2)C1` [Compound 175, ((2-(((S)-1-((S)-4-acetyl-2-((R)-3-phenylpiperidine-1-carbonyl)piperazin-1-yl)-3,3-dimethyl-1-oxobutan-2-yl)carbamoyl)benzo[b]thiophen-5-yl)difluoromethyl)phosphonic acid], the results for the Ki on STAT5A and on STAT6 protein were 1 to 10 µM and 0.1 to 1 µM, respectively.

Take `CC(=O)N1CCN(C(=O)[C@@H](NC(=O)c2cc3cc(C(F)(F)P(=O)(O)O)ccc3s2)C(C)(C)C)[C@H](C(=O)N2CC[C@H](c3ccccc3)C2)C1` [Compound 176, ((2-(((S)-1-((S)-4-acetyl-2-((R)-3-phenylpyrrolidine-1-carbonyl)piperazin-1-yl)-3,3-dimethyl-1-oxobutan-2-yl)carbamoyl)benzo[b]thiophen-5-yl)difluoromethyl)phosphonic acid]: the Ki on STAT5A and on STAT6 protein was 1 to 10 µM throughout.

As to `CC(=O)N1CCN(C(=O)[C@@H](NC(=O)c2cc3cc(C(F)(F)P(=O)(O)O)ccc3s2)C(C)(C)C)[C@H](C(=O)N2CC[C@@H](c3ccccc3)C2)C1` [Compound 177, ((2-(((S)-1-((S)-4-acetyl-2-((S)-3-phenylpyrrolidine-1-carbonyl)piperazin-1-yl)-3,3-dimethyl-1-oxobutan-2-yl)carbamoyl)benzo[b]thiophen-5-yl)difluoromethyl)phosphonic acid], the Ki on STAT5A is above 10 µM; on STAT6 protein, 1 to 10 µM.

For `CC(=O)N1CC[C@H]2CC[C@@H](C(=O)N3CCS(=O)(=O)C(c4ccccc4)C3)N2C(=O)[C@@H](NC(=O)c2cc3cc(C(F)(F)P(=O)(O)O)ccc3s2)C1` (stereo partly drawn) [Compound 178, ((2-(((5S,8S,10aR)-3-acetyl-8-(1,1-dioxido-2-phenylthiomorpholine-4-carbonyl)-6-oxodecahydropyrrolo[1,2-a][1,5]diazocin-5-yl)carbamoyl)benzo[b]thiophen-5-yl)difluoromethyl)phosphonic acid], the values for the Ki at STAT5A and on STAT6 protein were 1 to 10 µM and 0.1 to 1 µM, respectively.

As for `CC(C)(C)[C@H](NC(=O)c1cc2cc(C(F)(F)P(=O)(O)O)ccc2s1)C(=O)N1CCCC[C@H]1C(=O)N1CCO[C@H](c2ccccc2)C1` [Compound 179, ((2-(((S)-3,3-dimethyl-1-oxo-1-((S)-2-((R)-2-phenylmorpholine-4-carbonyl)piperidin-1-yl)butan-2-yl)carbamoyl)benzo[b]thiophen-5-yl)difluoromethyl)phosphonic acid], the Ki at STAT5A was 1 to 10 µM; at STAT6 protein, 0.1 to 1 µM.

As for `CC(C)(C)[C@H](NC(=O)c1cc2cc(C(F)(F)P(=O)(O)O)ccc2s1)C(=O)N1CCCC[C@H]1C(=O)N1CCC[C@H](c2ccccc2)C1` [Compound 180, ((2-(((S)-3,3-dimethyl-1-oxo-1-((S)-2-((R)-3-phenylpiperidine-1-carbonyl)piperidin-1-yl)butan-2-yl)carbamoyl)benzo[b]thiophen-5-yl)difluoromethyl)phosphonic acid], the results for the Ki at STAT5A and at STAT6 protein were 1 to 10 µM and 0.1 to 1 µM, respectively.

In the case of `CC(C)(C)[C@H](NC(=O)c1cc2cc(C(F)(F)P(=O)(O)O)ccc2s1)C(=O)N1CCCC[C@H]1C(=O)N1Cc2ccccc2C1` [Compound 181, (difluoro(2-(((S)-1-((S)-2-(isoindoline-2-carbonyl)piperidin-1-yl)-3,3-dimethyl-1-oxobutan-2-yl)carbamoyl)benzo[b]thiophen-5-yl)methyl)phosphonic acid], the Ki at STAT5A and on STAT6 protein was above 10 µM each time.

Take `CC(C)(C)[C@H](NC(=O)c1cc2cc(C(F)(F)P(=O)(O)O)ccc2s1)C(=O)N1CCCC[C@H]1C(=O)Nc1ncc(-c2ccccc2)s1` [Compound 182, ((2-(((S)-3,3-dimethyl-1-oxo-1-((S)-2-((5-phenylthiazol-2-yl)carbamoyl)piperidin-1-yl)butan-2-yl)carbamoyl)benzo[b]thiophen-5-yl)difluoromethyl)phosphonic acid]: the Ki at STAT5A was in the range of 0.1 to 1 µM; at STAT6 protein, 1 to 10 µM.

Turning to `CC(C)(C)[C@H](NC(=O)c1cc2cc(C(F)(F)P(=O)(O)O)ccc2s1)C(=O)N1CCCCC[C@H]1C(=O)N1CCO[C@H](c2ccccc2)C1` [Compound 183, ((2-(((S)-3,3-dimethyl-1-oxo-1-((S)-2-((R)-2-phenylmorpholine-4-carbonyl)azepan-1-yl)butan-2-yl)carbamoyl)benzo[b]thiophen-5-yl)difluoromethyl)phosphonic acid], the Ki on STAT5A is 1 to 10 µM; on STAT6 protein it was 0.1 to 1 µM.

For the molecule `CC(C)(C)[C@H](NC(=O)c1cc2cc(C(F)(F)P(=O)(O)O)ccc2s1)C(=O)N1CCCCC[C@H]1C(=O)N1CCC[C@H](c2ccccc2)C1` [Compound 184, ((2-(((S)-3,3-dimethyl-1-oxo-1-((S)-2-((R)-3-phenylpiperidine-1-carbonyl)azepan-1-yl)butan-2-yl)carbamoyl)benzo[b]thiophen-5-yl)difluoromethyl)phosphonic acid], the Ki is 1 to 10 µM at STAT5A and 0.1 to 1 µM on STAT6 protein.

In the case of `CC(C)(C)[C@H](NC(=O)c1cc2cc(C(F)(F)P(=O)(O)O)ccc2s1)C(=O)N1CCCCC[C@H]1C(=O)N1CC[C@H](c2ccccc2)C1` [Compound 185, ((2-(((S)-3,3-dimethyl-1-oxo-1-((S)-2-((R)-3-phenylpyrrolidine-1-carbonyl)azepan-1-yl)butan-2-yl)carbamoyl)benzo[b]thiophen-5-yl)difluoromethyl)phosphonic acid], the Ki on STAT5A and at STAT6 protein was 1 to 10 µM each time.

For `CC(C)(C)[C@H](NC(=O)c1cc2cc(C(F)(F)P(=O)(O)O)ccc2s1)C(=O)N1CCCCC[C@H]1C(=O)N1CC[C@@H](c2ccccc2)C1` [Compound 186, ((2-(((S)-3,3-dimethyl-1-oxo-1-((S)-2-((S)-3-phenylpyrrolidine-1-carbonyl)azepan-1-yl)butan-2-yl)carbamoyl)benzo[b]thiophen-5-yl)difluoromethyl)phosphonic acid], the Ki is 1 to 10 µM on STAT5A and above 10 µM on STAT6 protein.
